Assay [1] addresses T1, Serine/threonine-protein kinase PLK1 (Homo sapiens, UniProt P53350). Nature of the assay: Induction of PLK1 degradation in human DU-145 cells measured for 23 hrs by Western blot analysis. In kind it is cell-based. The following applies: dose 10-45 µM.
Assay [2] deals with T1, Serine/threonine-protein kinase PLK1. Description: Induction of PLK1 degradation in human PC-3 cells measured for 23 hrs by Western blot analysis. In kind it is cell-based. For orientation: A western blot detects proteins with antibodies after separation by electrophoresis.
Assay [3] shares this target. Nature of the assay: Binding affinity to […] (unknown origin) using MAGPMQS[pT]PLNGAKK tracer peptide as substrate by fluorescence polarization binding assay. Background: Fluorescence polarisation rises when a labelled molecule tumbles more slowly, as on binding a larger partner.
Assay [4] has as its system PC-3. Description: Antiproliferative activity against human PC-3 cells assessed as reduction in cell viability incubated for 72 hrs by MTT assay. Conditions: PC-3, 72 h. In kind it is functional, cell-based. (In general: Tetrazolium assays rely on reduction of a dye to a coloured formazan, in cell work by metabolically active cells.)
The next assay has as its system HeLa. Nature of the assay: Antiproliferative activity against human HeLa cells assessed as reduction in cell viability incubated for 72 hrs by MTT assay. Type of assay: functional, cell-based.
Assay [5] deals with T1, Serine/threonine-protein kinase PLK1. Nature of the assay: Binding affinity to PLK1 in human PC-3 cells incubated for 2 hrs followed by heat shock for 10 mins by cellular thermal shift assay. In kind it is cell-based.
Assay [6] shares this target. Description: Inhibition of PLK1 in human PC-3 cells assessed as reduction in phosphorylation of TCTP at ser46 measured after 23 hrs by immunoblotting analysis. Type of assay: cell-based.
The target is the same in assay [7]. Nature of the assay: Induction of PLK1 degradation in human PC-3 cells at 10 uM measured for 23 hrs by Western blot analysis relative to control. Type of assay: cell-based.
Assay [8] has the same target. Description: Induction of PLK1 degradation in human PC-3 cells at 30 uM measured for 23 hrs by Western blot analysis relative to control. Type of assay: cell-based.
For assay [9] the target is unchanged. Description: Induction of PLK1 degradation in human PC-3 cells at 45 uM measured for 23 hrs by Western blot analysis relative to control. In kind it is cell-based.
The target is the same in assay [10]. Description: Induction of PLK1 degradation in human PC-3 cells at 10 uM pretreated with proteosome inhibitor MG132 for 1 hr followed by compound addition and measured after 23 hrs by Western blot analysis relative to control. In kind it is cell-based. Also on record: scale not given: the % may be the effect or the level left.
The target is the same in assay [11]. Description: Induction of PLK1 degradation in human PC-3 cells at 30 uM pretreated with proteosome inhibitor MG132 for 1 hr followed by compound addition and measured after 23 hrs by Western blot analysis relative to control. In kind it is cell-based. Also on record: scale not given: the % may be the effect or the level left.
The target is the same in assay [12]. Description: Induction of PLK1 degradation in human PC-3 cells at 45 uM pretreated with proteosome inhibitor MG132 for 1 hr followed by compound addition and measured after 23 hrs by Western blot analysis relative to control. Type of assay: cell-based. Also on record: scale not given: the % may be the effect or the level left.
For assay [13] the target is unchanged. Nature of the assay: Inhibition of PLK1 in human PC-3 cells assessed as reduction in phosphorylation of TCTP at ser46 measured after 23 hrs in presence of colcemid by immunoblotting analysis. In kind it is cell-based.
Assay [14] shares this target. Description: Induction of PLK1 degradation in human PC-3 cells measured after 23 hrs in presence of colcemid by Western blot analysis. Conditions: dose 10-45 µM. In kind it is cell-based.
The test system of assay [15] is PC-3. Description: Induction of cell cycle arrest in human PC-3 cells at 10 to 45 uM incubated for 23 hrs by flow cytometry analysis. Conditions: dose 10-45 µM. In kind it is functional, cell-based.
Assay [16] concerns PC-3. Nature of the assay: Induction of cell cycle arrest in human PC-3 cells assessed as reduction in G2/M phase at 45 uM incubated for 23 hrs in presence of colcemid by flow cytometry analysis (reference value: 67%). In kind it is functional. Also on record: scale not given: the % may be the effect or the level left.
Assay [17] deals with HRPE. Description: Antiproliferative activity against human RPE cells expressing wild-type PLK1 assessed as reduction in cell viability after 72 hrs by MTT assay. Type of assay: functional, cell-based.
Assay [18] concerns HRPE. Nature of the assay: Antiproliferative activity against human RPE cells expressing C67V mutant PLK1 assessed as reduction in cell viability after 72 hrs by MTT assay. Type of assay: functional, cell-based.
In assay [19] the test system is HRPE. Nature of the assay: Antiproliferative activity against human RPE cells expressing wild type PLK1 assessed as reduction in cell viability upto 120 uM after 72 hrs by MTT assay. In kind it is functional, cell-based.
Assay [20] addresses T1, Serine/threonine-protein kinase PLK1. Description: Induction of PLK1 degradation in human PC-3 cells upto 60 uM measured after 23 hrs by Western blot analysis. Type of assay: cell-based. Conditions: dose microM <=60, time 23.0 hrs.
Assay [21] relates to PC-3. Nature of the assay: Induction of cell cycle arrest in human PC-3 cells at 60 uM incubated for 23 hrs in presence of colcemid by flow cytometry analysis. Type of assay: functional, cell-based.
Assay [22] concerns HRPE. Description: Antiproliferative activity against human RPE cells expressing C67V mutant PLK1 assessed as reduction in cell viability upto 120 uM after 72 hrs by MTT assay. In kind it is functional, cell-based.

SMILES strings stand for the structures. pEC50, pIC50: −log10 of the molar value. Active and inactive are the calls of the source. The calls are words filed in the database; no cut-off is given here.

T1 sequence (P53350 whole entry): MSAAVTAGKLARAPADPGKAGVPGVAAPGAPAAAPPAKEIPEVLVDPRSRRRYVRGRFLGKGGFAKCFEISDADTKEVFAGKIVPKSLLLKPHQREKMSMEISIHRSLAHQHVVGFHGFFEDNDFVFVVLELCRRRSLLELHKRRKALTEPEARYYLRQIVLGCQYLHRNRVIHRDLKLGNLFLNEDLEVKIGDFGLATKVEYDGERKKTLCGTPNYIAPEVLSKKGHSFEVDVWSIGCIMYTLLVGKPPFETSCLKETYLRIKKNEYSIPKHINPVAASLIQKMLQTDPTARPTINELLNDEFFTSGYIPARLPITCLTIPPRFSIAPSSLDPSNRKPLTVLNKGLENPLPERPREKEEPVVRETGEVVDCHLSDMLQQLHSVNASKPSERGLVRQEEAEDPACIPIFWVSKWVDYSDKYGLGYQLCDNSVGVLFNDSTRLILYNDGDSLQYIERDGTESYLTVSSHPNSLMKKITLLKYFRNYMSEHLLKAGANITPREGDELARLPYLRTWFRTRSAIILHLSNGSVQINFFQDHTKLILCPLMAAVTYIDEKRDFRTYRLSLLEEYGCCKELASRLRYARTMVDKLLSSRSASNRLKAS

As usually defined, the pIC50 is the negative decadic logarithm of the IC50, by convention in mol/L. The pEC50 is the EC50 on a negative log10 scale, so that one unit is a factor of ten. `CCCCCCCCSc1ccc(C(=O)Nc2ccc(C)cc2C(=O)O)cc1`: the Activity result in assay [1] was “Dose-Dependent Effect”; in assay [2], “Dose-Dependent Effect”; in assay [7], 30%; in assay [8] it was 5%; in [9], 7%; in assay [10], 64%. Moreover, the Activity in assay [11] was 25%; in assay [12], 16%; in assay [14], “Dose-Dependent Effect”; in the assay with PC-3 [16], 20%. Besides, the negative logarithm of the IC50 (pIC50) in assay [3] was 4.57; in the assay with PC-3 [4], 4.82; in the assay on HeLa, 4.92. Moreover, in assay [5], the pEC50 is 6.19. Moreover, the inhibition entry in [6] and in assay [13] was “Active” throughout. Also, the result in the assay with PC-3 [15] was inactive.

On to `CCCCCCCSc1ccc(C(=O)Nc2ccccc2C(=O)O)cc1`, for which the negative logarithm of the IC50 (pIC50) in [3] was 4.54; with PC-3 [4], 4.56.

Consider `CCCCCCCCNc1ccc(C(=O)Nc2ccc(C)cc2C(=O)O)cc1`, for which the pIC50 in assay [3] is 4.14; in the assay with PC-3 [4], 4.44.

In assay [3], `CCCCCCCCCc1ccc(C(=O)Nc2ccc(C)cc2C(=O)OC)cc1` gave a negative logarithm of the IC50 (pIC50) below 3.22.

Regarding `CCCCCCCNc1ccc(C(=O)Nc2ccccc2C(=O)O)cc1`, the pIC50 in assay [3] was 4.06; in the assay with PC-3 [4], 4.38.

In the case of `CCCCCCCOc1ccc(C(=O)Nc2ccc(C)cc2C(=O)O)cc1`, the pIC50 was 4.46 in assay [3], 4.37 with PC-3 [4] and 4.50 in the assay on HeLa.

On to `CCCCCCCCNc1ccc(C(=O)Nc2cc(C)ccc2C(=O)O)cc1`, for which the pIC50 in [3] is 4.57; in the assay with PC-3 [4], 4.70.

Take `CCCCCCCCCc1ccc(C(=O)Nc2ccc(C)cc2C(=O)O)cc1`: the pIC50 in assay [3] was 4.47; with PC-3 [4], 4.52; in the assay with HeLa, 4.67.

Regarding `CCCCCCCCCc1ccc(C(=O)Nc2cc(C)ccc2C(=O)O)cc1`, the negative-log IC50 (pIC50) in assay [3] was 4.55; with PC-3 [4] it was 4.74.

With `CCCCCCCCCCc1ccc(C(=O)Nc2ccc(C)cc2C(=O)O)cc1`, the pIC50 is 4.62 in assay [3], 4.64 in the assay with PC-3 [4] and 4.81 in the assay with HeLa.

For `CCCCCCCCc1ccc(C(=O)Nc2ccc(C(F)(F)F)cc2C(=O)O)cc1`, the pIC50 with PC-3 [4] was 4.85; in the assay with HeLa, 4.98.

On to `CCCCCCCNc1ccc(C(=O)Nc2ccc(C)cc2C(=O)O)cc1`, for which the pIC50 in assay [3] is 4.38; with PC-3 [4], 4.50; in the assay on HeLa, 4.73.

For `Cc1ccc(C(=O)O)c(NC(=O)c2ccc(N)cc2)c1`, the results for the negative-log IC50 (pIC50) (in [3]; in the assay on PC-3 [4]; in the assay with HeLa) were below 3.22, below 3.92 and below 3.92, respectively.

Turning to `CCCCCCCCSc1ccc(C(=O)Nc2cc(C)ccc2C(=O)O)cc1`, the negative-log IC50 (pIC50) in assay [3] is 4.55; with PC-3 [4] it was 4.59.

For `CCCCCCCSc1ccc(C(=O)Nc2ccc(C)cc2C(=O)O)cc1`, the negative-log IC50 (pIC50) is 4.63 in assay [3], 4.84 in the assay with PC-3 [4] and 5.03 in the assay on HeLa. In addition, the outcome in the assay on HRPE [17] and in the assay on HRPE [18] was Active.

In the case of `CCCCCCCCCCCCc1ccc(C(=O)Nc2cc(C)ccc2C(=O)O)cc1`, the pIC50 is 4.59 in assay [3] and 4.77 with PC-3 [4].

For the compound `CCCCCCCCCCCCc1ccc(C(=O)Nc2ccc(C)cc2C(=O)O)cc1`, the pIC50 in assay [3] was 4.58; with PC-3 [4] it was 4.78; in the assay on HeLa, 4.97. For the same compound, the result in the assay on HRPE [17] and in the assay on HRPE [18] was Active.

Turning to `CCCCCCCCOc1ccc(C(=O)Nc2ccc(C)cc2C(=O)O)cc1`, the negative-log IC50 (pIC50) was 4.54 in assay [3] and 4.66 with PC-3 [4].

Take `CCCCCCCCOc1ccc(C(=O)Nc2cc(C)ccc2C(=O)O)cc1`: the negative-log IC50 (pIC50) was 4.53 in assay [3] and 4.71 in the assay on HeLa.

As to `CCCCCCCCCc1ccc(C(=O)Nc2cc(C)ccc2C(=O)OC)cc1`, the pIC50 in assay [3] is below 3.22; with PC-3 [4], below 3.92; in the assay with HeLa it was below 3.92. Moreover, the outcome (in assay [5] (time 130.0 min); in the assay with HRPE [19]; in assay [20]; in the assay with PC-3 [21]; in the assay with HRPE [22]) was inactive. In assay [13], the inhibition result was “inactive”.

Consider `CCCCCCCOc1ccc(C(=O)Nc2ccccc2C(=O)O)cc1`, for which the values for the negative-log IC50 (pIC50) (in [3]; in the assay with PC-3 [4]) were 4.43 and 4.52, respectively.

For the origin of these results see ChEMBL document CHEMBL5036328, “Nonpeptidic, Polo-Box Domain-Targeted Inhibitors of PLK1 Block Kinase Activity, Induce Its Degradation and Target-Resistant Cells” (J Med Chem, 2021).
